The values that follow are results of earlier work, collected in US20110105450A1, “OPHTHALMIC FORMULATIONS OF FLUTICASONE AND METHODS OF USE” (Aciex Therapeutics, Inc., priority 2009, published 2011).

Converted amounts (≈) assume the structure as drawn.

Consider `CCC(=O)O[C@]1(C(=O)SCF)[C@H](C)C[C@H]2[C@@H]3C[C@H](F)C4=CC(=O)C=C[C@]4(C)[C@@]3(F)[C@@H](O)C[C@@]21C` [Fluticasone propionate, S-fluoromethyl-6-α-9-difluoro-11-β-hydroxy-16-α-methyl-3-oxoandrosta-1,4-diene-17-β-carbothioate, 17-propionate], for which the “solubility in 95% ethanol” value (95% ethanol) is “slightly soluble”. Also, the “solubility in dimethyl sulfoxide” value (dimethyl sulfoxide) is listed as “freely soluble”. Moreover, under “dimethyl-formamide”, the solubility in dimethyl-formamide result is given as “freely soluble”. Besides, the solubility in methanol entry (methanol) was “slightly soluble”. Where the note is “water”, the solubility in water was 0.14 µg/mL (≈ 0.28 µM).
